Read-outs that look alike come from different tables or passages of the source.
How the values were obtained:
[1] = target: T1, human serotonin 5-HT2A receptor (Homo sapiens, UniProt P28223); test: Radioligand binding assay, human 5-HT2A receptors ([3H]Ketanserin)
T1 construct: expressed in transfected cells; host or cells: CHO-K1

[2] = target: T2, human serotonin 5-HT2C receptor (Homo sapiens, UniProt P28335); test: Radioligand binding assay, human 5-HT2C receptors ([3H]Mesulergine)
T2 construct: expressed in transfected cells; host or cells: CHO-K1
T2 sequence (P28335 33-458): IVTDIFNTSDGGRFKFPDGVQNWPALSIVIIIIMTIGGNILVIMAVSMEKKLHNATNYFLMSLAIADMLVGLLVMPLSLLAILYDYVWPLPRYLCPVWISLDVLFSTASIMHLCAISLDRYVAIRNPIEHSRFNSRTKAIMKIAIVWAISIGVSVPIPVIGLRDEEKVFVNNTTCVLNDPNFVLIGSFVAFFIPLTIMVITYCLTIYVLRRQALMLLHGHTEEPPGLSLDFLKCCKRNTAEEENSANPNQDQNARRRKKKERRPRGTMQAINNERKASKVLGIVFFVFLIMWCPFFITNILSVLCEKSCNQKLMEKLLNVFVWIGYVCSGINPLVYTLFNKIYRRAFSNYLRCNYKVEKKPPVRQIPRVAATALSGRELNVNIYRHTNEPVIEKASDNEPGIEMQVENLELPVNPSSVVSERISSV
Procedure, shortened: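 Membranes from CHO-K1 cells stably expressing human 5-HT2C receptor were prepared in modified Tris-HCl pH 7.7 buffer. Non-specific binding was defined with 1 μM mianserin.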

[3] = target: T3, human dopamine transporter (Homo sapiens, UniProt Q01959); test: Binding to human dopamine transporter ([125I]RTI-55)
T3 construct: expressed in transfected cells; host or cells: CHO-K1
T3 sequence (Q01959 whole entry): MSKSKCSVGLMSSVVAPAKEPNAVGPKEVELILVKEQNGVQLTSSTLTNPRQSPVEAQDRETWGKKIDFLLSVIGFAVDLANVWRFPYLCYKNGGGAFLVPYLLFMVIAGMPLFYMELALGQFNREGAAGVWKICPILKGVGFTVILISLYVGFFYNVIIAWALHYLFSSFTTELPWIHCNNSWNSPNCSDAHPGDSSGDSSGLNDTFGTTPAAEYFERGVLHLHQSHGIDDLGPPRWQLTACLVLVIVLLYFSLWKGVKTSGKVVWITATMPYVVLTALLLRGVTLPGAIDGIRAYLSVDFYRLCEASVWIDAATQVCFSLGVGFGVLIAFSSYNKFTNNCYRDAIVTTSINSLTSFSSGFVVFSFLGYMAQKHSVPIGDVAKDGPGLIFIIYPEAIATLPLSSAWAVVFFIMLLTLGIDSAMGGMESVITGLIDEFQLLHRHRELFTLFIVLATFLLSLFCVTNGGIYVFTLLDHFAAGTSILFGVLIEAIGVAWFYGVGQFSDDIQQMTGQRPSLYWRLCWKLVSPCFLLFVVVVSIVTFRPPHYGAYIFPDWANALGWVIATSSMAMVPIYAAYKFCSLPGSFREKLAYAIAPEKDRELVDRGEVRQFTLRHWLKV
Protocol: CHO-K1 cell membranes stably transfected with a plasmid encoding the human dopamine transporter were prepared in modified Tris-HCl pH 7.4 buffer using standard techniques. […] Non-specific binding was estimated in the presence of 10 μM nomifensine. […] Trends. […]

[4] = tested on: Wistar rats; test: Acute toxicity assessment (maximum tolerated dose) in Wistar rats, i.v.; format: in vivo; details: observed 72 hours
Protocol: An in vivo evaluation was carried out to determine the maximum tolerated dose of certain compounds in Wistar rats (male and female weighing ˜[…]). The compounds were administered i.v. and the animals were then observed for 72 hours. Compounds 37, 93, and 112 were solubilized in 5% dextrose (w/v)/polyethylene glycol 400 (4:1 v/v).

[5] = human, Example 100 table, read-out: IC50 (nM) 5-HT2A
[6] = human, Example 100 table, read-out: IC50 (nM) 5-HT2C
[7] = human, Example 100 table, read-out: IC50 (nM) DAT
[8] = human 5-HT2a, Example 16 table, read-out: IC50 (nM) 5-HT2a
[9] = human 5-HT2c, Example 16 table, read-out: IC50 (nM) 5-HT2c
[10] = human, Example 101 table, read-out: IC50 (nM) DAT

T1 sequence (P28223 whole entry): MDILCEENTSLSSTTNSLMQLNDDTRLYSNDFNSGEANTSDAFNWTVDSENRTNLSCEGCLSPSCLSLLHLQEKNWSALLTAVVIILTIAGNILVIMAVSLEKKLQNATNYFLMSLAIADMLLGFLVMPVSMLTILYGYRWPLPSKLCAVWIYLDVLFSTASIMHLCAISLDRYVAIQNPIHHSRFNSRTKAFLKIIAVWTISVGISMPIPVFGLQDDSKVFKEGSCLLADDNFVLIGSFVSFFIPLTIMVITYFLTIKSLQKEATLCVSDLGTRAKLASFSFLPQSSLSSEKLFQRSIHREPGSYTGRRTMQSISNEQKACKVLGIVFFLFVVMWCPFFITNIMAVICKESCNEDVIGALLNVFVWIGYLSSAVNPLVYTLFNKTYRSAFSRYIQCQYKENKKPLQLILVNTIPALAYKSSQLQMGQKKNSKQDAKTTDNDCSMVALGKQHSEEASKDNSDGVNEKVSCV

SMILES	IC50 [3, 7] [nM]	IC50 [1, 8] [nM]	IC50 [2, 9] [nM]	IC50 [3, 10] [nM]	further results
CN1CCCC1CCNc1nc(C2(c3ccccc3F)CCCCC2)cs1 (racemic) [Compound 128, {4-[1-(2-fluorophenyl)-cyclohexyl]-thiazol-2-yl}-[2-(1-methyl-pyrrolidin-2-yl)-ethyl]-amine]	> 1000				IC50 [1, 5]: < 100 nM; IC50 [2, 6]: < 10 nM
CN1CCCC1CCNc1nc(C2(c3ccccc3F)CCCCC2)cs1 (single isomer, unassigned) [Compound 130, {4-[1-(2-fluorophenyl)-cyclohexyl]-thiazol-2-yl}-[2-(1-methyl-pyrrolidin-2-yl)-ethyl]-amine]	> 1000				IC50 [1, 5]: < 100 nM; IC50 [2, 6]: < 10 nM
CN1CCN(c2nc(C3(c4csc5ccc(Cl)cc45)CCOCC3)cs2)CC1 [Compound 36]		> 1000	< 1000	> 1000	
Clc1ccc(C2(c3csc(N4CCNCC4)n3)CCOCC2)cc1 [Compound 37]		< 1000	< 1000	> 1000	Tolerability and mortality after 72 h ([4]; 60 mg/kg i.v.): well tolerated by the animals and did not cause any mortality
CN1CCN(c2nc(C3(c4ccccc4)CCOCC3)cs2)CC1 [Compound 59]					IC50 ([1]; IC50 (nM) 5-HT2a, human 5-HT2a, Example 16 table): > 1000 nM; IC50 ([2]; IC50 (nM) 5-HT2c, human 5-HT2c, Example 16 table): > 1000 nM; IC50 [3]: > 1000 nM
CN1CCN(c2nc(C3(c4cccc(Cl)c4)CCOCC3)cs2)CC1 [Compound 63]		> 1000	< 1000	> 1000	
CN1CCN(c2nc(C3(c4ccccc4F)CCCCC3)cs2)CC1 [Compound 83]		> 1000	< 100	> 1000	
CN1CCN(c2nc(C3(c4ccccc4F)CCCC3)cs2)CC1 [Compound 93]		< 1000	< 100	> 1000	Tolerability and mortality after 72 h ([4]; 60 mg/kg i.v.): well tolerated by the animals and did not cause any mortality
CN1CCN(c2nc(C3(c4ccccc4F)CCOCC3)cs2)CC1 [Compound 112]	> 1000				Tolerability and mortality after 72 h ([4]; 30 mg/kg i.v.): well tolerated by the animals and did not cause any mortality

From patent US7087623B2, “Thiazole and other heterocyclic ligands for mammalian dopamine, muscarinic and serotonin receptors and transporters, and methods of use thereof” (Sepracor Inc., priority 2001, dated 2006)
